The target of assay [1] is T1, Trastuzumab (TMab) (Homo sapiens, UniProt P01857, D239E/L241M).
T1 construct: Genentech (HERCEPTIN)
In words: SPR binding of peptides to immobilized Trastuzumab. The conditions noted are these: for Kd: TMab, FIG. 3C; for reduced binding affinity (Kd fold decreased) compared to the Fc-III peptide: relative to Fc-III. How it is done: Example 2: SPR binding experiments. Kinetics of peptide binding to Trastuzumab were measured by surface plasmon resonance (SPR) on a Biacore 3000 instrument (GE Healthcare) using a previously established method. (Gong, Y.; et al., Development of the Double Cyclic Peptide Ligand for Antibody Purification and Protein Detection. Bioconjugate chemistry 2016). An amine coupling kit (GE Healthcare) was used to immobilize Trastuzumab to the surface of a CM5 Sensor Chip (GE Healthcare). All injections were double-referenced with real-time reference channel subtraction and buffer blank injections. Data were analyzed using the BiaEvaluation software (version 4.1, GE Healthcare).
(In SPR one partner is held on a chip, and binding of the other changes the refractive index at the surface.)

For assay [2], the target named is T1, Trastuzumab (TMab). In words: Photoconjugation (UV 365 nm) of peptide to Trastuzumab, DAR by LC-MS. The procedure:
(§1) Example 2: Antibody conjugation. Conjugation reactions for photocrosslinking peptides were performed open and uncovered in V-bottom, clear, polystyrene 96-well plates (ThermoFisher, product #2605) with a final reaction volume of 50 μL. Unused wells were filled with 150 μL of deionized water. Optimized reactions were performed in 20 mM histidine acetate buffer, pH=5.5, with a final concentration of 48 μM antibody, 480 μM photo-crosslinking peptide, 480 μM 5-hydroxyindole ([…], Sigma-Aldrich), with 11% (v/v) DMSO. […] The DAR was assessed by LC-MS analysis of Fc/2 or heavy chain fragments generated by IdeS or DTT treatments of Trastuzumab, respectively.

Assay [3] addresses human IgG. The conditions noted are these: previously reported, Gong et al. 2016; cited from earlier work.
In assay [4] the target is rabbit IgG (C) (Oryctolagus cuniculus, UniProt P01870). In words: Photoconjugation of peptide to rabbit IgG antibody C, DAR. How it is done:
as §1

In assay [5] the target is T1, Trastuzumab (TMab). Kind of assay: Photoconjugation (UV 365 nm) of peptide to Trastuzumab, DAR by LC-MS. The conditions noted are these: PBS, micro-centrifuge tubes on ice, hand-held 365 nm lamp, one hour.
In assay [6] the target is human IgG4 "YTE" mutant (B) (Homo sapiens, UniProt P01861, M132Y/S134T/T136E). Kind of assay: Photoconjugation of peptide to human IgG4 YTE mutant antibody B, DAR. The conditions noted are these: Human IgG4 YTE mutant (no Met-252). How it is done: as §1
Assay [7] has as its target mouse IgG1 antibody (D) (Mus musculus, UniProt P01868). In words: Photoconjugation of peptide to mouse IgG1 antibody D, DAR. Conditions: Mouse IgG1 (no Met-252). How it is done:
as §1

Assay [8] deals with human IgG4 antibody (A) (Homo sapiens, UniProt P01861). In words: Photoconjugation of peptide to human IgG4 antibody A, DAR. How it is done: as §1
Assay [9] deals with Rituximab (human IgG1). Kind of assay: Photoconjugation of peptide to Rituximab, DAR.
The mark [10] stands for this setting: 96-well plate directly under 365 nm lamp, room temperature, 4.5 hours.

Several values for one entry are separate records, joined by “and”; a condition that tells them apart may be missing. Equal entries are not always repeated.

As to `CC(=O)N[C@@H](CC(=O)O)C(=O)N[C@H]1CSSC[C@@H](C(=O)N[C@H](C(N)=O)[C@@H](C)O)NC(=O)[C@H](Cc2c[nH]c3ccccc23)NC(=O)[C@H](C(C)C)NC(=O)[C@H](CC(C)C)NC(=O)[C@H](CCC(=O)O)NC(=O)CNC(=O)[C@H](Cc2ccc(C(=O)c3ccccc3)cc2)NC(=O)[C@H](Cc2c[nH]cn2)NC(=O)[C@H](Cc2c[nH]c3ccccc23)NC(=O)[C@H](C)NC1=O` [BPA4, Ac-DCAWHBGELVWCT-NH2], in assay [1], the Kd (as a rule, the free concentration of one partner at which half of the binding sites on the other are occupied at equilibrium, for simple one-to-one binding) was approximately 30 µM and the “reduced binding affinity (Kd fold decreased) compared to the Fc-III peptide” value is reported as “greater than 1700 fold”. Besides, the DAR in assay [2] (setting [10]) was 1.2.
For `CC(=O)N[C@@H](CC(=O)O)C(=O)N[C@H]1CSSC[C@@H](C(=O)N[C@H](C(N)=O)[C@@H](C)O)NC(=O)[C@H](Cc2c[nH]c3ccccc23)NC(=O)[C@H](C(C)C)NC(=O)[C@H](CC(C)C)NC(=O)[C@H](CCC(=O)O)NC(=O)CNC(=O)[C@H](CC(C)C)NC(=O)[C@H](Cc2c[nH]cn2)NC(=O)[C@H](Cc2c[nH]c3ccccc23)NC(=O)[C@H](C)NC1=O` [Fc-III], the Kd in assay [3] was 0.07 µM.
For the compound “Ac-DCAWBLGELVWCT-NH2 (DCAWXLGELVWCT; Ac, NH2; BPA non-natural residue; /note=“N-term Ac”; MOD_RES (5)..(5) p-benzoyl-L-phenylalanine; /note=“C-term NH2”) [BPA3, B = BPA]”, in [2] (setting [10]), the DAR is reported as 0.2.
For the compound `CC(=O)N[C@@H](CC(=O)O)C(=O)N[C@H]1CSSC[C@@H](C(=O)N[C@H](C(N)=O)[C@@H](C)O)NC(=O)[C@H](Cc2c[nH]c3ccccc23)NC(=O)[C@H](Cc2ccc(C(=O)c3ccccc3)cc2)NC(=O)[C@H](CC(C)C)NC(=O)[C@H](CCC(=O)O)NC(=O)CNC(=O)[C@H](CC(C)C)NC(=O)[C@H](Cc2c[nH]cn2)NC(=O)[C@H](Cc2c[nH]c3ccccc23)NC(=O)[C@H](C)NC1=O` [BPA7, Ac-DCAWHLGELBWCT-NH2], the “DAR reached upon photoconjugation to BPA7” value is 1.2 in assay [4]; 2.0 in assay [2] (Trastuzumab, Human IgG1); 0.0 in assay [6]; 0 in assay [7]; 2.0 in assay [8]; 2.0 in [9]. Also, the Kd in assay [1] is ~70 µM and 70 µM. Besides, in assay [1] (relative to BPA9), the “bound to TMab less tightly than BPA9” value was approximately 150 fold. The “reduced binding affinity (Kd fold decreased) compared to the Fc-III peptide” value in [1] is recorded as “greater than 4000 fold”. The “drug-to-antibody ratio (DAR)” value in [5] is reported as approximately 0.04. Also, the DAR in [2] (setting [10]) is approximately 1.7; in assay [2] (Row B: 267 μM BPA7, PBS, on ice (~4° C.), 4 hours), 1.5; in [2] (Row C: 267 μM BPA7, histidine-acetate pH 5.5, on ice, 4 hours) it was 1.8; in [2] (Row D: 267 μM BPA7, PBS, 267 μM 5-hydroxyindole, on ice, 4 hours), 1.4; in [2] (Row E: 480 μM BPA7 (10-fold over antibody), histidine-acetate pH 5.5, 5-hydroxyindole, 6 hours, on ice), 1.9; in assay [2] (irradiation chamber, Row A: 267 μM BPA7, PBS, room temperature, 4 hours) it was 1.8. Further, in [2] (FIG. 3C, peptide series comparison), the “DAR (photoconjugation efficiency)” value came out at 1.9.

These data come from patent US20220047711A1, “PHOTOCROSSLINKING PEPTIDES FOR SITE SPECIFIC CONJUGATION TO FC-CONTAINING PROTEINS” (Genentech, Inc., priority 2018, published 2022).
